Test results taken from patent US9226942B2, “Expanding hematopoietic stem cells” (priority 2010, dated 2016).

Key:
[1] = tested on: BW CD34+ cells; test: Cytokine supplemented stroma-free liquid culture of CD34+ cells (cell counts, FACS); type: cell-based, human
[2] = tested on: VentX; test: Quantitative (RT-)PCR of VentX expression in CD34+ cells; type: cell-based, human
Excerpt: Bone marrow (BW) samples were obtained from discarded femoral head tissue after hip replacement surgery from Brigham and Women's Hospital, with institutional IRB approval. After Ficoll separation of mononuclear cells, CD34+ cells were enriched using magnetically activated cell sorting CD34^+ progenitor kit (Miltenyi Biotec). The purity of the BW CD34+ cells was over 95%, as assessed by flow cytometry as described in Rizo et al., 2008.
Total RNA was isolated by the TRIzol method, and same amount of RNA was used for first-strand cDNA synthesis with SuperSript First-Strand Synthesis System (Invitrogen) according to the manufacturer's protocol. To determine VentX mRNA level, the cDNA was then used for real-time PCR of VentX with primers: 5′-CCGTCAGCATCAAGGAGG-3′ (SEQ ID NO: 19) and 5′-CTGGACCTCTGAGAGCTGC-3′ (SEQ ID NO: 20). Real-time PCR was also performed with SYBR Green on a LightCycler® 480 system (480 Real-Time PCR System; Roche).
Briefly, the lentiviral vector pHAGE-CMV-eGFPW that expresses a shRNA targeting VentX (pHAGE-shVentX) was used for the transduction of bone marrow CD34+ cells. This lentiviral vector contains an internal ribosome entry site (IRES) that allows simultaneous expression of GFP to monitor transduction rate or for cell sorting. The corresponding DNA sequence of VentX shRNA is SEQ ID NO: 12 or 14. […]

[3] = tested on: CD34+ cells; test: In vitro colony-forming cell (CFC) assay; type: cell-based, human
Description: Assays for in vitro colony-forming cells (CFCs) were performed by plating sorted GFP positive CD34+ cells (1×10^4 per dish) in triplicates in complete methylcellulose medium (Methocult G F, H4434; Stem Cell Technologies), which contains a mixture of recombinant human cytokines (SCF, IL-3, GM-CSF, and erythropoietin). Colonies were counted after 14 days of incubation at 37° C. and classified according to standard criteria.
Human BW CD34+ cells were obtained as described in Example 1. These cells were transfected with pCS2-GFP or pCS2-GFPVentX plasmid using the Human CD34+ cell Nucleofector Kit (Lonza) as described above. GFP-positive cells were sorted by FACSAria high-speed sorter after transfected for 24 hours.

[4] = tested on: human CD34+ cells; test: SR1-mediated expansion of human CD34+ cells; type: cell-based
[5] = colonies counted after 14 days, vs GFP control

Compound	expansion of HSCs in comparison with siGFP-transfected cells ([1]; 2 weeks culture)	percentage of CD34+ cells ([1]; siRNA-transfected cells)	knockdown of VentX in CD34+ cells ([2]; quantitative PCR / RT-PCR)	increase in total number of progeny cells ([3]; based on the CFC assay)	increase in formation of BFU-E/CFU-E colonies [3, 5]	increase in formation of CFU-GM colonies [3, 5]	expansion of CD34+ cells [4]	expression of VentX in the CD34+ cells [2]
siVentX: short oligonucleotides targeting VentX, siRNA SEQ ID NO: 5 (UUCAGAAUCGCCGCAUGAAACACAAACGG) (listed as RNA, chemistry not given here)	~2 fold	an increase	~70%	~2 fold	~2 fold	~2 fold	–	–
CC(C)n1cnc2c(NCCc3ccc(O)cc3)nc(-c3csc4ccccc34)nc21 [SR1, StemRegenin 1, reference compound]	–	–	–	–	–	–	increased	inhibited
